Tests used:
[1] = target: Casein kinase I isoform epsilon (Homo sapiens) (UniProt P49674); conditions: Compound concentration 1000.0 nM
[2] = target: Androgen receptor (Homo sapiens) (UniProt P10275); experiment: AR (h) Eurofins-Cerep binding assay; set-up: ligand concentration 1 nM; conditions: filed as agonist, Compound concentration 10.0 uM
[3] = target: Serine/threonine-protein kinase D2 (Homo sapiens) (UniProt Q9BZL6); conditions: Compound concentration 1000.0 nM
[4] = target: Serine/threonine-protein kinase VRK2 (Homo sapiens) (UniProt Q86Y07); conditions: Compound concentration 1000.0 nM
[5] = target: voltage-gated L-type Ca2+ channel (dihydropyridine site) (Rattus norvegicus, UniProt P22002+P27732+Q02485); experiment: Ca2+ channel (L, dihydropyridine site) Eurofins-Cerep binding assay; set-up: incubation time 90 min, incubation temperature RT, ligand concentration 0.1 nM; conditions: rat cerebral cortex (source of protein), probe [3H]nitrendipine (0.1 nM), compound concentration 10 uM, read-out: % Inhibition of Control Specific Binding (Mean n=2)
[6] = target: Activin receptor type-2B (Homo sapiens) (UniProt Q13705); conditions: Compound concentration 1000.0 nM
[7] = target: SRSF protein kinase 3 (Homo sapiens) (UniProt Q9UPE1); conditions: Compound concentration 1000.0 nM
[8] = target: Myosin-IIIb (Homo sapiens) (UniProt Q8WXR4); conditions: Compound concentration 1000.0 nM
[9] = tested on: Tyrosine-protein kinase ABL1 (Homo sapiens), P00519 [F317L]; conditions: Compound concentration 1000.0 nM
[10] = target: Urotensin-2 receptor (Homo sapiens) (UniProt Q9UKP6); experiment: UT (h) Eurofins-Cerep binding assay; set-up: ligand concentration 0.1 nM; conditions: filed as agonist, Compound concentration 10.0 uM
[11] = target: Sodium-dependent dopamine transporter (Homo sapiens) (UniProt Q01959); experiment: dopamine transporter (h) Eurofins-Cerep binding assay; set-up: ligand concentration 4 nM; conditions: filed as antagonist, Compound concentration 10.0 uM
[12] = target: Activin receptor type-1 (Homo sapiens) (UniProt Q04771); conditions: Compound concentration 1000.0 nM
[13] = target: Calcium/calmodulin-dependent protein kinase type 1D (Homo sapiens) (UniProt Q8IU85); conditions: Compound concentration 1000.0 nM
[14] = target: SRSF protein kinase 2 (Homo sapiens) (UniProt P78362); conditions: Compound concentration 1000.0 nM
[15] = target: Death-associated protein kinase 1 (Homo sapiens) (UniProt P53355); conditions: Compound concentration 1000.0 nM
Sequence of Death-associated protein kinase 1 (Homo sapiens) (P53355 whole entry, looked up): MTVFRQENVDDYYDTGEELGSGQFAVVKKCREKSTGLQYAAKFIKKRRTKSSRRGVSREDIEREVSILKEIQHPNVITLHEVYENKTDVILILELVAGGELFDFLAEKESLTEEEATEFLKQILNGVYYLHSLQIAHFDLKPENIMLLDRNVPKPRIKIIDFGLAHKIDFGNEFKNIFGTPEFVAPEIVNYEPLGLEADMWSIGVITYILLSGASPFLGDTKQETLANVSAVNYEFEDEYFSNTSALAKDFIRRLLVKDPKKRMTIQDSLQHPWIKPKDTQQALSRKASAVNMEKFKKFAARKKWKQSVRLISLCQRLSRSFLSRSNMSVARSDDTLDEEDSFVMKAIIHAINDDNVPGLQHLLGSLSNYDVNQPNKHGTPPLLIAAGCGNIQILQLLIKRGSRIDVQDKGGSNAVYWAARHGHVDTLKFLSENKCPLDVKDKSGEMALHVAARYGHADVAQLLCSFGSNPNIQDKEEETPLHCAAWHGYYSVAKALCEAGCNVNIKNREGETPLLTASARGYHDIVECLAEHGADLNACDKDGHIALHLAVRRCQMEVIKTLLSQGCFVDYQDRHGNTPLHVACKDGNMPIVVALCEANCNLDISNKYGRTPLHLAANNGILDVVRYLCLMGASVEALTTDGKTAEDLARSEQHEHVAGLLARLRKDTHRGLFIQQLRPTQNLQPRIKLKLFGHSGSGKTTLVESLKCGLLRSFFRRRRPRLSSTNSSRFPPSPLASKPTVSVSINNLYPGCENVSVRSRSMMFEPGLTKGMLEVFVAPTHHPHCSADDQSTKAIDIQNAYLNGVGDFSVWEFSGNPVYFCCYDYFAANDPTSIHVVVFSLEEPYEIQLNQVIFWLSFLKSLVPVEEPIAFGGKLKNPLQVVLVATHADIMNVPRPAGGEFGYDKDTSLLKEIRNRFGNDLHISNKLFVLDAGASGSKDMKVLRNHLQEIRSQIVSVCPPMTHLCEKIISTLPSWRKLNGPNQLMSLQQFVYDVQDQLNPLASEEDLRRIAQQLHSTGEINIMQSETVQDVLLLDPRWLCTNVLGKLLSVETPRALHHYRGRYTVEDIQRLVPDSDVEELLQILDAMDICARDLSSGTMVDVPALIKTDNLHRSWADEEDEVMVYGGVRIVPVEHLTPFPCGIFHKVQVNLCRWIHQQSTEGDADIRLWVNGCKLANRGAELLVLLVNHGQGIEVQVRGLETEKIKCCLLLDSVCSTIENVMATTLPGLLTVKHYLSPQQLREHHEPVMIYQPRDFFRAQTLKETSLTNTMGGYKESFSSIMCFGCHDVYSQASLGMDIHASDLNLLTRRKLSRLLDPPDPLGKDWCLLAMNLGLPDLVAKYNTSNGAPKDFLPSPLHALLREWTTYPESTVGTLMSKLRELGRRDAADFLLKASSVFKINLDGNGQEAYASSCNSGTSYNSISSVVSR

[16] = target: Receptor-interacting serine/threonine-protein kinase 4 (Homo sapiens) (UniProt P57078); conditions: Compound concentration 1000.0 nM
[17] = target: ALK tyrosine kinase receptor (Homo sapiens) (UniProt Q9UM73); conditions: Compound concentration 1000.0 nM
[18] = target: Dual specificity protein kinase CLK2 (Homo sapiens) (UniProt P49760); conditions: Compound concentration 1000.0 nM
[19] = target: Serine/threonine-protein kinase Chk1 (Homo sapiens) (UniProt O14757); conditions: Compound concentration 1000.0 nM
[20] = target: Beta-1 adrenergic receptor (Homo sapiens) (UniProt P08588); experiment: Beta1 (h) Eurofins-Cerep binding assay; set-up: ligand concentration 0.3 nM; conditions: filed as agonist, Compound concentration 10.0 uM
[21] = target: Kappa-type opioid receptor (Homo sapiens) (UniProt P41145); experiment: kappa (h) (KOP) Eurofins-Cerep binding assay; set-up: ligand concentration 0.5 nM; conditions: filed as agonist, Compound concentration 10.0 uM
[22] = target: Tyrosine-protein kinase CSK (Homo sapiens) (UniProt P41240); conditions: Compound concentration 1000.0 nM
[23] = target: Phosphatidylinositol 5-phosphate 4-kinase type-2 gamma (Homo sapiens) (UniProt Q8TBX8); conditions: Compound concentration 1000.0 nM
[24] = target: Serine/threonine-protein kinase PAK 3 (Homo sapiens) (UniProt O75914); conditions: Compound concentration 1000.0 nM
[25] = target: Tyrosine-protein kinase JAK1 (Homo sapiens) (UniProt P23458); conditions: Compound concentration 1000.0 nM
[26] = tested on: Mast/stem cell growth factor receptor Kit (Homo sapiens), P10721 [V559D,V654A]; conditions: Compound concentration 1000.0 nM
[27] = target: Angiopoietin-1 receptor (Homo sapiens) (UniProt Q02763); conditions: Compound concentration 1000.0 nM
Sequence of Angiopoietin-1 receptor (Homo sapiens) (Q02763 whole entry): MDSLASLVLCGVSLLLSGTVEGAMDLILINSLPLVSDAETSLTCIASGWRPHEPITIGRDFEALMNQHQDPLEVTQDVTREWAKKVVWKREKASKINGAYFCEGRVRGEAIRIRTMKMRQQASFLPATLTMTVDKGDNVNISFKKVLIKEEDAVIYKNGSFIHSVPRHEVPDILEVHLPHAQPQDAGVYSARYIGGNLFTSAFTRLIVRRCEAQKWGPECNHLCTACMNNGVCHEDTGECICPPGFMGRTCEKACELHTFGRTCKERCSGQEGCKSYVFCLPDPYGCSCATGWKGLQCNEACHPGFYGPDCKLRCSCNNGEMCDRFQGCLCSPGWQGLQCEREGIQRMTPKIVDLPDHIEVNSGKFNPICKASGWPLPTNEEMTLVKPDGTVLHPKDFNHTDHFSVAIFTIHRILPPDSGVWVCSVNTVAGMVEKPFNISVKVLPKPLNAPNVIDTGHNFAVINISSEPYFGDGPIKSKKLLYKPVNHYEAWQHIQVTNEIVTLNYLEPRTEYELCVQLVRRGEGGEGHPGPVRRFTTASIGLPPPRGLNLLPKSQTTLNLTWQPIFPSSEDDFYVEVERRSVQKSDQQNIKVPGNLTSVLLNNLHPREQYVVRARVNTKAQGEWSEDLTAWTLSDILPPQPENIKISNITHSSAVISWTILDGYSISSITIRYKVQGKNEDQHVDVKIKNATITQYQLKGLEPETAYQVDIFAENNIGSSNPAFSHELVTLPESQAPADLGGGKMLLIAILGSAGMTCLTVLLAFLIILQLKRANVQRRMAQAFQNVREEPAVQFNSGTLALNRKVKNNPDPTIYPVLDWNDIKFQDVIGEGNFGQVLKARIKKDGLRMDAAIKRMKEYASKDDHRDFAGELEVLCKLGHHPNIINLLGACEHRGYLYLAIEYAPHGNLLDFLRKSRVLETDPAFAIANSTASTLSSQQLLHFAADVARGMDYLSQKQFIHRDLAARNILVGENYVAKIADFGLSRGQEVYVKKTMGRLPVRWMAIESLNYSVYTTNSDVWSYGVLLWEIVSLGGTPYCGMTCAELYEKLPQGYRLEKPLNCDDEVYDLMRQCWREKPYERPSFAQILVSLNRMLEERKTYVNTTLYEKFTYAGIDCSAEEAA

[28] = target: Serine/threonine-protein kinase PAK 6 (Homo sapiens) (UniProt Q9NQU5); conditions: Compound concentration 1000.0 nM
Sequence of Serine/threonine-protein kinase PAK 6 (Homo sapiens) (Q9NQU5 whole entry, looked up): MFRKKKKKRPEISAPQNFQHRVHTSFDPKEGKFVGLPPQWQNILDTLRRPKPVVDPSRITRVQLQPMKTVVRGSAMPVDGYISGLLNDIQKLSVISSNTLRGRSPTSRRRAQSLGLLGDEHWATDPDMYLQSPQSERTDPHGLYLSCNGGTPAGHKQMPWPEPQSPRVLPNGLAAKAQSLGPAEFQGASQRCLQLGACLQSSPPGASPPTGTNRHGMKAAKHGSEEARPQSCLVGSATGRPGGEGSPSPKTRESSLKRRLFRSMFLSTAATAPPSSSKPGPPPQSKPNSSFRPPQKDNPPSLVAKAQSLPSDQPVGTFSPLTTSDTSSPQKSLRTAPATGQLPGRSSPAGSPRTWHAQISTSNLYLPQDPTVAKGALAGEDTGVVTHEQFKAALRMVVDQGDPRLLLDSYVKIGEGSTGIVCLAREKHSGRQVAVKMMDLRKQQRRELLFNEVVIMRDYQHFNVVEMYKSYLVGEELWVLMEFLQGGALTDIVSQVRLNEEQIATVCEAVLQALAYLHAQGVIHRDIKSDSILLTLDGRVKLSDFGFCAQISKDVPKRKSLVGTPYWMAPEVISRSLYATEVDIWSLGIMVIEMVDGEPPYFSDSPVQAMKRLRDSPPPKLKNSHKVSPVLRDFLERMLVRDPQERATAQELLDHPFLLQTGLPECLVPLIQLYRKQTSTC

[29] = target: Tyrosine-protein kinase TXK (Homo sapiens) (UniProt P42681); conditions: Compound concentration 1000.0 nM
[30] = target: Receptor tyrosine-protein kinase erbB-4 (Homo sapiens) (UniProt Q15303); conditions: Compound concentration 1000.0 nM
Sequence of Receptor tyrosine-protein kinase erbB-4 (Homo sapiens) (Q15303 whole entry): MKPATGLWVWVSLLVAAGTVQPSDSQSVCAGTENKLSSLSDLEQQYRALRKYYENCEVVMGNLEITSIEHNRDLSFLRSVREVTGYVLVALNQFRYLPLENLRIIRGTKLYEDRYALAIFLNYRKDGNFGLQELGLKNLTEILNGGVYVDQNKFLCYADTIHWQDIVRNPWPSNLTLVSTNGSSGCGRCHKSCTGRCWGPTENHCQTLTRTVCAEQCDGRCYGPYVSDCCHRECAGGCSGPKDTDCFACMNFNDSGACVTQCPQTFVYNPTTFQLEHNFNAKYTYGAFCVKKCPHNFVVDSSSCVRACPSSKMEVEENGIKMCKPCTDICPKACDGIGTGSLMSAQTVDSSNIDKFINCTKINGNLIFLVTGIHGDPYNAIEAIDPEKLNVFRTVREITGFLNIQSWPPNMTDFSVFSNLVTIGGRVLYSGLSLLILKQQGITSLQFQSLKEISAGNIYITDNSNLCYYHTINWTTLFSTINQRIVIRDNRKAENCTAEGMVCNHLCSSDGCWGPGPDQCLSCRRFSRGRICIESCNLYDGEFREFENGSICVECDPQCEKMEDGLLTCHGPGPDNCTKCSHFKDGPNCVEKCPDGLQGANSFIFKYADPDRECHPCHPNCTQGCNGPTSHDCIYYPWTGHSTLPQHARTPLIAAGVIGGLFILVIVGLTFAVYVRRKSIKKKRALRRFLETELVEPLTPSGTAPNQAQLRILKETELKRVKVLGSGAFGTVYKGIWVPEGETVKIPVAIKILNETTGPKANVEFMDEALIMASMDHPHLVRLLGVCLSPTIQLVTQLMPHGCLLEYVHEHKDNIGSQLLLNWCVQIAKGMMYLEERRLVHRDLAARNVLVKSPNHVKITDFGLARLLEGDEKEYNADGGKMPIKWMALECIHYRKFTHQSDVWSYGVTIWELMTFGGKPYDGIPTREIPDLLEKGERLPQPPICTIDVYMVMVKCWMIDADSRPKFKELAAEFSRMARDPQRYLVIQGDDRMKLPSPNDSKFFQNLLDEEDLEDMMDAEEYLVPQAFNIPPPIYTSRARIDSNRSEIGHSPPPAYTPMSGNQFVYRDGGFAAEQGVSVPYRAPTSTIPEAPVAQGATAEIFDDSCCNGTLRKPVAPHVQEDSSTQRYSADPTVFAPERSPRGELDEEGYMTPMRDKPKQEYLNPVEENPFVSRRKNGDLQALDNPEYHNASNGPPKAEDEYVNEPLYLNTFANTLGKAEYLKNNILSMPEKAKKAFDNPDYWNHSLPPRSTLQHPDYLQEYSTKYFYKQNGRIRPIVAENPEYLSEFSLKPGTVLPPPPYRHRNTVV

[31] = target: Dual specificity mitogen-activated protein kinase kinase 4 (Homo sapiens) (UniProt P45985); conditions: Compound concentration 1000.0 nM
[32] = target: Phosphatidylinositol 4,5-bisphosphate 3-kinase catalytic subunit delta isoform (Homo sapiens) (UniProt O00329); conditions: Compound concentration 1000.0 nM
[33] = tested on: Tyrosine-protein kinase ABL1 (Homo sapiens), P00519 [M351T]; conditions: Compound concentration 1000.0 nM
[34] = target: GABA-A receptor; alpha-1/beta-2/gamma-2 (Homo sapiens) (UniProt P14867+P47870+P18507); experiment: GABAA1 (h) (alpha1,beta2,gamma2) Eurofins-Cerep binding assay; assay type: protein-complex assay; set-up: ligand concentration 15 nM; conditions: filed as agonist, Compound concentration 10.0 uM
[35] = target: Dual specificity protein kinase CLK3 (Homo sapiens) (UniProt P49761); conditions: Compound concentration 1000.0 nM
Sequence of Dual specificity protein kinase CLK3 (Homo sapiens) (P49761 whole entry, looked up): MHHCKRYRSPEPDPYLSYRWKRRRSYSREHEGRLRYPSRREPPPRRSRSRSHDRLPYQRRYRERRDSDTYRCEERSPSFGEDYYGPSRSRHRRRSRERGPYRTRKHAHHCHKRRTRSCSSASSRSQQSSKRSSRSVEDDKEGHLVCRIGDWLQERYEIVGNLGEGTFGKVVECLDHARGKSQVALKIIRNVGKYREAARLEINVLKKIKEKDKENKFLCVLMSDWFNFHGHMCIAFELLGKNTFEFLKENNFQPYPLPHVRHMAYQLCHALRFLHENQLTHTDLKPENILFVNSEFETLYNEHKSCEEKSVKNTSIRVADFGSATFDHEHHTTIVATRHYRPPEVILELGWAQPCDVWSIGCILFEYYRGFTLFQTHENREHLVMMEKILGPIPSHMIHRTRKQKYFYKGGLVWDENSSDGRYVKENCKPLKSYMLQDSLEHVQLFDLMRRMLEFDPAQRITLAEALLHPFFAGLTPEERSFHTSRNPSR

[36] = target: Receptor tyrosine-protein kinase erbB-2 (Homo sapiens) (UniProt P04626); conditions: Compound concentration 1000.0 nM
[37] = target: Mitogen-activated protein kinase kinase kinase 14 (Homo sapiens) (UniProt Q99558); conditions: Compound concentration 1000.0 nM
[38] = tested on: Epidermal growth factor receptor (Homo sapiens), P00533 [L858R,T790M]; conditions: Compound concentration 1000.0 nM
[39] = target: Receptor tyrosine-protein kinase erbB-3 (Homo sapiens) (UniProt P21860); conditions: Compound concentration 1000.0 nM
[40] = tested on: Fibroblast growth factor receptor 3 (Homo sapiens), P22607 [G697C]; conditions: Compound concentration 1000.0 nM
[41] = target: Serine/threonine-protein kinase RIO2 (Homo sapiens) (UniProt Q9BVS4); conditions: Compound concentration 1000.0 nM
[42] = tested on: Tyrosine-protein kinase ABL1 (Homo sapiens), P00519 [F317I]; conditions: Compound concentration 1000.0 nM
[43] = target: Mu-type opioid receptor (Homo sapiens) (UniProt P35372); experiment: mu (MOP) (h) Eurofins-Cerep binding assay; conditions: filed as agonist, Compound concentration 10.0 uM
[44] = target: Calcitonin-gene-related peptide receptor, CALCRL/RAMP1 (Homo sapiens) (UniProt O60894+Q16602); experiment: CGRP (h) Eurofins-Cerep binding assay; assay type: protein-complex assay; set-up: ligand concentration 0.03 nM; conditions: filed as agonist, Compound concentration 10.0 uM

Compound `CCCOc1ccc([C@H]2[C@H](C(=O)O)[C@@H](c3ccc4c(c3)OCO4)CN2CC(=O)Nc2c(CC)cccc2CC)cc1` [A-192621] has a residual activity [1] of 100%, a % Inhibition of Control Specific Binding (Mean n=2) [2] of -11.6% and a residual activity [3] of 84%. For the same compound, the residual activity [4] was 61%, the inhibition at 90 min, 10 µM [5] was 30.3% and the residual activity [6] was 93%. For the same compound, the residual activity [7] was 100%, the residual activity [8] was 66% and the residual activity [9] was 68%. For the same compound, the % Inhibition of Control Specific Binding (Mean n=2) [10] was 23.9%, the % Inhibition of Control Specific Binding (Mean n=2) [11] was 23.6% and the residual activity [12] was 100%. It also gave a residual activity [13] of 75%, a residual activity [14] of 96% and a residual activity [15] of 90%. For the same compound, the residual activity [16] was 69%, the residual activity [17] was 100% and the residual activity [18] was 91%. It also gave a residual activity [19] of 98%, a % Inhibition of Control Specific Binding (Mean n=2) [20] of 1.4% and a % Inhibition of Control Specific Binding (Mean n=2) [21] of 31.9%. For the same compound, the residual activity [22] was 80%, the residual activity [23] was 49% and the residual activity [24] was 100%. It also gave a residual activity [25] of 94%, a residual activity [26] of 98% and a residual activity [27] of 100%. It also gave a residual activity [28] of 68%, a residual activity [29] of 85% and a residual activity [30] of 100%. It also gave a residual activity [31] of 80%, a residual activity [32] of 75% and a residual activity [33] of 69%. It also gave a % Inhibition of Control Specific Binding (Mean n=2) [34] of -34%, a residual activity [35] of 97% and a residual activity [36] of 79%. It also gave a residual activity [37] of 85%, a residual activity [38] of 75% and a residual activity [39] of 78%. It also gave a residual activity [40] of 85%, a residual activity [41] of 71% and a residual activity [42] of 76%. For the same compound, the % Inhibition of Control Specific Binding (Mean n=2) [43] was 8.3% and the % Inhibition of Control Specific Binding (Mean n=2) [44] was -6.1%.

With `CCCOc1ccc([C@@H]2[C@@H](C(=O)O)[C@H](c3ccc4c(c3)OCO4)CN2CC(=O)Nc2c(CC)cccc2CC)cc1` [A-1806262] the residual activity [1] was 98%, the % Inhibition of Control Specific Binding (Mean n=2) [2] was -11.6% and the residual activity [3] was 100%. For the same compound, the residual activity [4] was 59%, the inhibition at 90 min, 10 µM [5] was 27.2% and the residual activity [6] was 96%. The residual activity [7] was 93%, the residual activity [8] was 52% and the residual activity [9] was 81%. For the same compound, the % Inhibition of Control Specific Binding (Mean n=2) [10] was 9.4%, the % Inhibition of Control Specific Binding (Mean n=2) [11] was 18.3% and the residual activity [12] was 95%. For the same compound, the residual activity [13] was 97%, the residual activity [14] was 100% and the residual activity [15] was 83%. The residual activity [16] was 100%, the residual activity [17] was 100% and the residual activity [18] was 100%. It also gave a residual activity [19] of 86%, a % Inhibition of Control Specific Binding (Mean n=2) [20] of 8.2% and a % Inhibition of Control Specific Binding (Mean n=2) [21] of 54.1%. For the same compound, the residual activity [22] was 91%, the residual activity [23] was 94% and the residual activity [24] was 77%. The residual activity [25] was 88%, the residual activity [26] was 94% and the residual activity [27] was 86%. For the same compound, the residual activity [28] was 83%, the residual activity [29] was 100% and the residual activity [30] was 100%. For the same compound, the residual activity [31] was 83%, the residual activity [32] was 90% and the residual activity [33] was 80%. The % Inhibition of Control Specific Binding (Mean n=2) [34] was -33.6%, the residual activity [35] was 93% and the residual activity [36] was 80%. It also gave a residual activity [37] of 82%, a residual activity [38] of 87% and a residual activity [39] of 84%. It also gave a residual activity [40] of 99%, a residual activity [41] of 98% and a residual activity [42] of 96%. For the same compound, the % Inhibition of Control Specific Binding (Mean n=2) [43] was 11.1% and the % Inhibition of Control Specific Binding (Mean n=2) [44] was -0.3%.

From ChEMBL document CHEMBL4507261, “Data for DCP probe A-192621” (2021)
